One compound from paper PMC5848165 (Toxins, 2018) can be followed below.

Entries after “also recorded” stand apart in the source; their conditions may differ. Residues, ends and D or L forms follow the SMILES beside them.

Test [1] addresses T1, hNav1.7 (Homo sapiens, UniProt Q15858).
T1 construct: expressed in transfected cells; host or cells: HEK293 (HEK293T) cells, transient
Kind of test: Whole-cell patch clamp, WT Nav1.7 in HEK293 cells. It counts as cell-based. An excerpt:
Nine sodium channel subtypes have been identified and classified as TTX-S (Nav1.1–Nav1.4, Nav1.6, and Nav1.7) or TTX-R types (Nav1.5, Nav1.8, and Nav1.9). […] However, the subtype selectivity of JZTX-34 on the subtype of sodium channel is still unknown. In this work, effects of JZTX-34 on VGSC subtypes (Nav1.1–Nav1.8) were examined. Nav1.1–Nav1.7 were transfected into HEK293 cells and Nav1.8 currents were expressed in ND cells. Inward sodium currents were elicited by a 50 ms depolarizing potential to −10 mV from a holding potential of −80 mV every 5 s. […] No effects on other sodium channel subtypes were found (Nav1.1, Nav1.2, Nav1.4–Nav1.6, and Nav1.8) (Figure S2).
Figure 2 Selectivity of JZTX-34 on sodium channel subtypes. All inward sodium channels were elicited by a 50 ms depolarizing potential to −10 mV from a holding potential of −80 mV every 5 s. One μM JZTX-34 was added to rNav1.3. (A) hNav1.7. (B,C) Dose-dependent inhibition of JZTX-34 on rNav1, rNav3, and hNav1.7 (n = 5). […]
The HEK293T cells were maintained in standard culture conditions (5% CO2 and 37 °C). […] After culturing for 36–72 h, cells with obvious green fluorescence were selected for sodium currents recordings the internal solution for sodium currents recording that contained (in mM) 140 CsF, 5 NaCl, 10 HEPES, 3 Na2-ATP, and 10 EGTA. […]
Sodium currents were recorded from DRG, HEK293, and ND cells by the whole-cell patch-clamp technique at 25 °C. […] Experiments date were acquired from whole-cell Axon 700B patch clamp amplifier (Molecular Devices, Sunnyvale, CA, USA) and analyzed by the program Clampfit10.0 (Molecular Devices, Sunnyvale, CA, USA) and Sigmaplot. […]
Data from Axon 700B patch clamp were analyzed by Clampfit10.0 (Molecular Devices, Sunnyvale, CA, USA). […] The G-V curves were obtained by calculating the conductance (G) at each voltage (V) using the equation G = I/(V1 − Vrev), with Vrev being the reversal potential determined for each cell individually. […] All the results from patch clamp and animal models are expressed as means ± standard error of the mean (SEM). […]

The subject of test [2] is hot plate test in mice. In words: Hot plate test. It counts as in vivo, mouse (Kunming). Conditions: for hot plate latency: 120 min, baseline about 10 s, n = 6. The procedure: Figure 6 Effects of JZTX-34 on pain. (A) Effects of JZTX-34 on the early phase (0–5 min) and late phase (15–30 min) of formalin-induced paw licking response in mice. (B) Effects of JZTX-34 on the acetic acid-induced writhing response in mice. (C)Effects of JZTX-34 on the hot plate test in mice.
Mice with a latency time about 10 s were selected for the hot plate test. […] After administration of test samples, the latency time was recorded at the time points of 30 min, 60 min, 120 min, and 180 min (Figure 6C). Negative control animals received the same volume of vehicle.
The synthesized JZTX-34 was obtained according to the procedure as previously described. […] Rats (Sprague-Dawley) and Kunming mice were maintained in the Laboratory of Protein Chemistry of Hunan Normal University. All of the experimental involving animals were approved by the Animal Care and Use Committee of Hunan Normal University (2016-273, 13 October 2016).
Mice were put on a hot plate apparatus (model HZ66-ZH-YLS-6B, Shanghai, China) in order to test response time to a thermal stimulus. The responses time of mice at about 10 s was selected for the test. […] Hind paw licking or jumping were regarded as a sign to avoid heat nociception.
Data from Axon 700B patch clamp were analyzed by Clampfit10.0 (Molecular Devices, Sunnyvale, CA, USA). Dose-response curves were fitted by the Hill logistic equation: y = 1 − (1 − fmax)/[…]. In this equation, n stands an empirical Hill coefficient and fmax is the fraction of current resistant to inhibition at high toxin (Tx) concentration. The G-V curves were obtained by calculating the conductance (G) at each voltage (V) using the equation G = I/(V1 − Vrev), with Vrev being the reversal potential determined for each cell individually. G-V curves were fitted using a Boltzmann equation—y = 1/(1 + exp[(Va − V)/κ])—in which Va, V, and κ represent midpoint voltage of kinetics, test potential, and slope factor, respectively. […] Statistical significance was calculated using Student’s t-test and was defined as p < 0.05.

T1 sequence (Q07699 19-218): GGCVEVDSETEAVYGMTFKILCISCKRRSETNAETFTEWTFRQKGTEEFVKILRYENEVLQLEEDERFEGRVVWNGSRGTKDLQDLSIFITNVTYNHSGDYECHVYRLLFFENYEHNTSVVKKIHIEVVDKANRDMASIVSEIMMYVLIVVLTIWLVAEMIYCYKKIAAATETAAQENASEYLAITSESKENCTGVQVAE
T1 sequence (Q15858 other isoform, or with tags, fused parts or gaps): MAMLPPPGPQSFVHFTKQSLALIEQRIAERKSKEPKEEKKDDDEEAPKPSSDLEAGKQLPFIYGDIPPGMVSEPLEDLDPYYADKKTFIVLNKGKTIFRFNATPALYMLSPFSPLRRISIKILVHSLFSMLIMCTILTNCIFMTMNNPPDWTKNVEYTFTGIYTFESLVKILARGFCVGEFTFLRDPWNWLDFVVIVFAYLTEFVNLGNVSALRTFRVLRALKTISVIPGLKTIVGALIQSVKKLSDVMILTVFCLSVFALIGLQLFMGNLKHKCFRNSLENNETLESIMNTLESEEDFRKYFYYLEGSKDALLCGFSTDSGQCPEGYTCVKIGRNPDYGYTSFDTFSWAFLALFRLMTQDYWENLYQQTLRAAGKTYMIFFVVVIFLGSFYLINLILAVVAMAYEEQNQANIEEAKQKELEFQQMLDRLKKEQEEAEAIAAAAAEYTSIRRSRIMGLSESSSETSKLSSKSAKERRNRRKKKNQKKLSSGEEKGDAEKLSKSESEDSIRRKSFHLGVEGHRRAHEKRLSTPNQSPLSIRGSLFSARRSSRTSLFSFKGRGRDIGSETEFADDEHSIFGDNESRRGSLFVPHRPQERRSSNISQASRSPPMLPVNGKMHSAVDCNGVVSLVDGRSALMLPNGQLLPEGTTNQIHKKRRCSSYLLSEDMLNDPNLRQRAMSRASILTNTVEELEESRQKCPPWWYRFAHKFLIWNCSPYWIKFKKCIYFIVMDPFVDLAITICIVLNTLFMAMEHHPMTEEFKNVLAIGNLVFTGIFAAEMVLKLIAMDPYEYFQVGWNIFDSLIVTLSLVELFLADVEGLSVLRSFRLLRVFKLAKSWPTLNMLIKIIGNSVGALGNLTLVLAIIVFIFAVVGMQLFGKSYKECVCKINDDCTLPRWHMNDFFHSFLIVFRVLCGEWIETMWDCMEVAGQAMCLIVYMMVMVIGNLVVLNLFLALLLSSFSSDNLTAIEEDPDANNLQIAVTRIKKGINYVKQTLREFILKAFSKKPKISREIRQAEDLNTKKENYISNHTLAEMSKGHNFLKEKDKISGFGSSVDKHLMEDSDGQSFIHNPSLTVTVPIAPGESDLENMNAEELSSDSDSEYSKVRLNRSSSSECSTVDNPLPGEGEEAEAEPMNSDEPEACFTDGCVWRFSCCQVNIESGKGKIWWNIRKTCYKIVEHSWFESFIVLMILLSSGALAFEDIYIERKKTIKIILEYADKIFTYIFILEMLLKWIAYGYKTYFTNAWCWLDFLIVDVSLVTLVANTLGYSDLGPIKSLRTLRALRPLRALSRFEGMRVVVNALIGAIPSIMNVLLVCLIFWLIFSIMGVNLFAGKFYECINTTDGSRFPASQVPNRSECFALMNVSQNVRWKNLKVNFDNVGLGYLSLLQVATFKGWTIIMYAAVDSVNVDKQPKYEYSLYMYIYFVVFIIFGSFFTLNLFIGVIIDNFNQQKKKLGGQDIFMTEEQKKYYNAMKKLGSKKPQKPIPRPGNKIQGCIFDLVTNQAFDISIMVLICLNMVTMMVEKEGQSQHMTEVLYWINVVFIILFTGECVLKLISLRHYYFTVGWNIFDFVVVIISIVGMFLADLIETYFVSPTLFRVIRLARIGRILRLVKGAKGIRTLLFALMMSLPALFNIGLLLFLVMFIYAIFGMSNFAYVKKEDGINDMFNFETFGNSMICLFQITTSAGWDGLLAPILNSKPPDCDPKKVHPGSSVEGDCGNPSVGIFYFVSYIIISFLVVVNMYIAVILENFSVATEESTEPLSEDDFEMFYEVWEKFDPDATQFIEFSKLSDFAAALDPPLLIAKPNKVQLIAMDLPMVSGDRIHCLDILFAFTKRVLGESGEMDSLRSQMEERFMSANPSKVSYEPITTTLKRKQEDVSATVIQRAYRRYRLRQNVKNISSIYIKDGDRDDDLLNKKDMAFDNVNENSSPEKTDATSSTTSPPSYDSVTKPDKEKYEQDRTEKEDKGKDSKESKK

For orientation: inhibition means the relative decrease from the control value, in per cent. As a reminder, the IC50 is the midpoint of a concentration-inhibition curve. Low values mean inhibition by little substance, high ones a need for much substance. In the case of `CC(C)C[C@@H]1NC(=O)[C@H](Cc2c[nH]c3ccccc23)NC(=O)[C@H](CCC(=O)O)NC(=O)[C@H](CCCNC(=N)N)NC(=O)[C@@H](NC(=O)[C@H](C)N)CSSC[C@@H]2NC(=O)[C@@H]3CSSC[C@@H](C(=O)N[C@H](C(=O)N[C@@H](Cc4c[nH]c5ccccc45)C(=O)N[C@@H](CC(=O)O)C(=O)N[C@@H](Cc4c[nH]c5ccccc45)C(=O)N[C@H](C(=O)N[C@H](C(=O)O)C(C)C)[C@@H](C)O)C(C)C)NC(=O)[C@H](Cc4c[nH]cn4)NC(=O)[C@H](Cc4ccc(O)cc4)NC(=O)[C@@H]4CCCN4C(=O)[C@H](Cc4c[nH]c5ccccc45)NC(=O)[C@H](CCCCN)NC(=O)[C@H](CCCCN)NC(=O)[C@H](CCCNC(=N)N)NC(=O)[C@H](CSSC[C@H](NC(=O)CNC(=O)CNC1=O)C(=O)N[C@@H](CO)C(=O)N[C@@H](CCCCN)C(=O)N[C@@H](CC(=O)O)C(=O)N[C@@H](C)C(=O)N[C@@H](CC(=O)O)C(=O)N3)NC(=O)[C@H](CCC(=O)O)NC(=O)[C@H](CC(C)C)NC(=O)[C@H](Cc1c[nH]cn1)NC(=O)[C@H](C)NC2=O` [JZTX-34, Jingzhaotoxin-34] (HELM PEPTIDE1{A.C.R.E.W.L.G.G.C.S.K.D.A.D.C.C.A.H.L.E.C.R.K.K.W.P.Y.H.C.V.W.D.W.T.V}$PEPTIDE1,PEPTIDE1,2:R3-16:R3|PEPTIDE1,PEPTIDE1,9:R3-21:R3|PEPTIDE1,PEPTIDE1,15:R3-29:R3$$$V2.0; N-terminus and C-terminus assumed), the inhibition at 1 µM in test [1] (1 µM, mutant comparison experiment (Figure 4), read-out: inhibition of WT Nav1.7 currents) was 54.3 ± 5.2%. Further, the “reduction of Nav1.7 currents” value in test [1] (1 µM, −10 mV from −80 mV holding, mean ± S.E., subtype selectivity experiment (Figure 2)) stood at 54.6 ± 5.3%. The compound also came in with an IC50 in test [1] (−10 mV from −80 mV holding, Hill fit, n = 5) of 610 nM. Also, the hot plate latency was found to be 18.3 s in test [2] (0.5 mg/kg i.p.), 23.0 s in test [2] (1 mg/kg i.p.) and 31.6 s in test [2] (2 mg/kg i.p.). The “time of maximal analgesia, hot plate” value in test [2] (0.5, 1 or 2 mg/kg i.p.) was determined as 120 min. For the same compound, in test [2] (JZTX-34 2 mg/kg vs morphine 5 mg/kg), the “hot plate, analgesia vs morphine” value was “longer duration and is more effective than morphine; also recorded: longer and stronger analgesia effects than 5 mg/kg morphine”.
